According to article PMC11347632 (Scientific Reports, 2024):

Target: RPA70 (replication protein A) (Homo sapiens, UniProt P27694)
Experiment: reconstituted RPA-dependent ATR kinase assay with western blot
Format: biochemical

RPA70 (replication protein A), sequence (P15927 whole entry): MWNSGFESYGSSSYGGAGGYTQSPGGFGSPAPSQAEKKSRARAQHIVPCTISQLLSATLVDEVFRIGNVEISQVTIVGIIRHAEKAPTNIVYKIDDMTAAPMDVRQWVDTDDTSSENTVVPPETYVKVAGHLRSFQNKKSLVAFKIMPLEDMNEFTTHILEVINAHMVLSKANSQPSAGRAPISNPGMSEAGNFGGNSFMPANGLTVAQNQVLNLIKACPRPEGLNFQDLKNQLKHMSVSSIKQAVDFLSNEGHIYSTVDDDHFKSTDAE
RPA70 (replication protein A), sequence (P35244 2-121, further chain): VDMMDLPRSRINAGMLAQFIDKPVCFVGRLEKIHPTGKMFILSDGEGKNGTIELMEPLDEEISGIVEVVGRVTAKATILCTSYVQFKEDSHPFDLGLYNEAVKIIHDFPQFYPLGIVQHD
RPA70 (replication protein A), sequence (P27694 whole entry): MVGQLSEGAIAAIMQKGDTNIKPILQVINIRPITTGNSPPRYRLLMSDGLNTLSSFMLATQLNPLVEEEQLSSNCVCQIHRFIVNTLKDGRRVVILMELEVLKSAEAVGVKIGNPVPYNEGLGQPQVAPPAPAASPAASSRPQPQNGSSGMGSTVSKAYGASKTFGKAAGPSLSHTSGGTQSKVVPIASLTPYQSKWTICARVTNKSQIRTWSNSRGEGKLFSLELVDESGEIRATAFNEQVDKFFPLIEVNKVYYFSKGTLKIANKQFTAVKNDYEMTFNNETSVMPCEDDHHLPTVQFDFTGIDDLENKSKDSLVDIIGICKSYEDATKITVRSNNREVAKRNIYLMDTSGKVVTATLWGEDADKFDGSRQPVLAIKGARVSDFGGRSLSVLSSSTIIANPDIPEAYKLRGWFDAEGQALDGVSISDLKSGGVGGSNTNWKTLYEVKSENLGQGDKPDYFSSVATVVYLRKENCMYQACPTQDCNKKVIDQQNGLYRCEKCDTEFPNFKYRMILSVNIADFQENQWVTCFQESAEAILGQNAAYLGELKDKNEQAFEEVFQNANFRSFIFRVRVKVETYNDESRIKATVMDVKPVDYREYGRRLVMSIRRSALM

O=C1C=Cc2ccccc2/C1=C/Nc1ccccc1O [HAMNO, (1Z)-1-[(2-hydroxyanilino)methylidene]naphthalen-2-one]
reconstituted RPA-dependent ATR kinase assay with western blot: we titrated increasing amounts of HAMNO and PAME into the fully activated ATR reaction
